Target: EGFR (UniProt P00533)
Sequence (P00533 whole entry, looked up): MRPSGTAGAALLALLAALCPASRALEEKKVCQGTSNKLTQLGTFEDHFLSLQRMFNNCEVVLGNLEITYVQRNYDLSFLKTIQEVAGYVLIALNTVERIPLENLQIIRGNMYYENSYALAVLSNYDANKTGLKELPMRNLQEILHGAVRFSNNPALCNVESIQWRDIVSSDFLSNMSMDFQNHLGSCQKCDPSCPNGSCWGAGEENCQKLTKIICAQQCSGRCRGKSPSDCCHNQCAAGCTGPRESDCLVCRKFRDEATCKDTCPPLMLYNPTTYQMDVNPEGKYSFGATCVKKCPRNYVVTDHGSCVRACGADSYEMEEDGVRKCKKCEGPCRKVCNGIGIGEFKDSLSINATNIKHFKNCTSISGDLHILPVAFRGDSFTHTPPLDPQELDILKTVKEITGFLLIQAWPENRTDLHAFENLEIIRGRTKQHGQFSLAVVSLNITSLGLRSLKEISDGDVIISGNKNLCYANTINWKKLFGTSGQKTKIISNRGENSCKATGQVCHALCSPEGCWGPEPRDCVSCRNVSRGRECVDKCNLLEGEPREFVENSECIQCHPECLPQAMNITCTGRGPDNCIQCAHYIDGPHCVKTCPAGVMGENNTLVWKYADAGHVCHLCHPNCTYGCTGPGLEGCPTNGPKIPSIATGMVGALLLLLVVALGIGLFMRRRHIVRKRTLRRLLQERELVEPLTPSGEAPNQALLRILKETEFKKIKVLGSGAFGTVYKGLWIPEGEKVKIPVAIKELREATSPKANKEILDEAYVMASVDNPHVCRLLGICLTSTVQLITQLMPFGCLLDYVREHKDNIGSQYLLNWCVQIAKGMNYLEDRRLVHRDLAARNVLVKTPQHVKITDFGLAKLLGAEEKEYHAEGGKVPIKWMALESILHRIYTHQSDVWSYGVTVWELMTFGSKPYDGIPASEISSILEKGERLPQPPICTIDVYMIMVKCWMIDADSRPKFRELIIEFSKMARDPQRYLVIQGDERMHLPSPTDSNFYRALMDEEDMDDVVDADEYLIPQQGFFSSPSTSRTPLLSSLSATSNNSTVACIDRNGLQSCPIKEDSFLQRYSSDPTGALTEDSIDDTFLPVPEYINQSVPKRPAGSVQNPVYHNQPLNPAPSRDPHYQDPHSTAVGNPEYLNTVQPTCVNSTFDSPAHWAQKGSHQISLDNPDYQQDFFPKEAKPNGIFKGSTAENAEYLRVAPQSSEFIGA

Row | SMILES | IC50
1 | COc1ccc2c(Nc3ccccc3)ncnc2c1 | 0.12 µM
2 | COc1cc2ncnc(N[C@H](C)c3cccc4ccccc34)c2cc1OC | 0.139 µM
3 | C[C@@H](Nc1ncnc2ccccc12)c1ccccc1 | 0.086 µM
4 | COc1ccc2c(N[C@@H](C)c3ccccc3)ncnc2c1 | 4 µM
5 | COc1cc2ncnc(N[C@@H](C)c3ccccc3)c2cc1OC | 3.76 µM
6 | COc1ccc2c(N[C@H](C)c3ccccc3)ncnc2c1 | 0.029 µM
7 | COc1cc2ncnc(NCc3cccc4ccccc34)c2cc1OC | 0.148 µM
8 | c1ccc(CNc2ncnc3ccccc23)cc1 | 0.32 µM
9 | COc1cc2ncnc(N[C@H](C)c3ccccc3)c2cc1OC | 0.0016 µM
10 | CC[C@@H](Nc1ncnc2cc(OC)c(OC)cc12)c1ccccc1 | 0.234 µM
11 | C[C@H](Nc1ncnc2ccccc12)c1ccccc1 | > 10 µM
12 | c1ccc(CCNc2ncnc3ccccc23)cc1 | 4.1 µM
13 | COc1cc2ncnc(NC3CCc4ccccc43)c2cc1OC (stereo not given) | 1 µM
14 | COc1cc2ncnc(NCc3ccccc3)c2cc1OC | 0.01 µM
15 | COc1ccc2c(NCc3ccccc3)ncnc2c1 | 0.058 µM
